Assay results as given in PMC9944328 (Nature Communications, 2023).

Tested on: SSTR2
Experiment: SSTR2 internalization by ELISA, HEK293, 30 min 37 °C (wild-type)
Type: cell-based, human
Settings: for Internalization of wild-type SSTR2: same concentration for both drugs, also confocal and Bystander BRET
Experimental: HEK293 cells were seeded into 96-well microplates at a density of 4 × 10^4 cells/well and cultured for 24 h at 37 °C with 5% CO2 and were transfected using the same procedure as the cAMP accumulation assay. The plates were washed with washing buffer (PBS) the day after transfection, and were fixed with 4% formalin at room temperature for 30 min. Cells were washed with washing buffer and blocked with PBS supplemented with 5% BSA for 1 h at room temperature. After that, cells were incubated with anti-Flag antibody (1:1000 diluted with PBS containing 5% BSA, Proteintech: 66008-4-Ig) for 1 h at room temperature. After 1 h incubation, cells were washed with washing buffer and incubating with HRP-conjugated secondary antibody for 2 h at room temperature. After incubating and washing, 50 μl of chromogenic solution was added to each well, and reacted at room temperature for 10 min, and then 0.5 M HCl were added to stop the reaction.
All data presented are means at least three independent experiments.

| SMILES | Receptor internalization (SSTR2 WT, compared with octreotide, Fig. 1d–f) | Internalization of wild-type SSTR2 |
| --- | --- | --- |
| N#Cc1cccc(-c2ccc3ncc(-c4cc(F)cc(F)c4)c(N4CCC(N)CC4)c3c2)c1O [paltusotine] | less receptor internalization | reduced |
| C[C@@H](O)[C@@H]1NC(=O)[C@H](CCCCN)NC(=O)[C@@H](Cc2c[nH]c3ccccc23)NC(=O)[C@H](Cc2ccccc2)NC(=O)[C@@H](NC(=O)[C@H](N)Cc2ccccc2)CSSC[C@@H](C(=O)N[C@H](CO)[C@@H](C)O)NC1=O [octreotide] |  | obviously internalized |
